Data taken from US20240423949A1, “APPLICATION OF SALVIANOLIC ACID B IN PREPARING ANTI-ROTAVIRUS PREPARATION” (GUANGDONG MEDICAL UNIVERSITY, priority 2023, published 2024).

Tests used:
[1] = test system: RV structural protein VP6 gene expression; assay: Gene expression level of RV structural protein VP6 in RV infected MA104 cells (real time PCR); format: cell-based, rotavirus
Description: (1) In order to further verify whether salvianolic acid B has an inhibitory effect on RV synthesis, a drug group (MA104 cells after RV infection were treated with different concentrations of salvianolic acid B), a ribavirin group, a normal group, and an RV group were set up. The supernatant was removed and PBS rinse was performed twice. 1 mL of Trizol reagent was added to each well and allowed to stand for 5 minutes. After blowing the cells with a gun tip, they were collected in a 1.5 mL enzyme free EP tube. 200 μL of chloroform was add to the tube. After 15 seconds of vortex shock, the tube was placed at room temperature for 5 min, and centrifuged (4° C., 12000 r/min for 15 min). The centrifuged sample was divided into three layers, namely, the colorless upper layer, the white middle layer and the red lower layer. […]
Real time quantitative PCR was performed using SYBR Green I fluorescence labeling to detect the expression levels of VP6 in the drug group, ribavirin group, normal group, and RV group, SYBR® Premix Pro Taq HS qPCR Kit II reagent kit was adopted, and GAPDH was selected as an internal reference. In the experiment, a real-time fluorescent quantitative PCR amplification reaction system was prepared according to the following table with a dedicated Real-time PCR plate of Axygen, and the reaction solution was prepared on ice (the total reaction was is 10 μL).

Wa strain rotavirus [2] = assay: Anti-RV adsorption effect in MA104 cells (drug before virus, MTT assay); format: cell-based; conditions: 16-256 μM
Description: Salvianolic acid B solutions of different concentrations were added into a 96-well culture plate of MA104 cells grown into monolayers, wherein 4 wells were repeated for each concentration of the solution, with 100 μL per well. An equal volume of ribavirin was added to the positive control group, and only an equal volume of DMEM culture solution was added to both the normal cell control group and the virus control group, and same were placed in a 5% CO2 incubator at 37° C. for incubation for 2 h. […] 1/10 volume of MTT solution was added to each well, after being incubated for 3-4 h in the incubator, the 96-well plate was taken out, the culture solution in the well was carefully aspirated, 150 uL of DMSO was added to each well, and same was placed on a shaker and shaken at a low speed for 10 min, so that the crystal was fully dissolved; and the absorbance was detected and recorded at a wavelength of 490 nm. The drug-to-virus inhibition rates were calculated and the experiment was repeated 3 times. […]

Wa strain rotavirus [3] = assay: Anti-RV biosynthesis effect in MA104 cells (drug after virus, MTT assay); format: cell-based; conditions: 64-256 μM, 100 TCID50, 72 h
Description: 100 TCID50 virus solution (virus with 20 μg/mL trypsin at 37° C. for 30 min) was added to a 96-well culture plate of MA104 cells grown to monolayers, with 100 μL per well, and the cells were rinsed twice with PBS before addition. A normal cell control group was set, an equal volume of DMEM culture solution was added, then the 96-well plate was placed in a 5% CO2 incubator at 37° C. for incubation for 2 h, the virus solution was aspirated, different concentrations of salvianolic acid B and ribavirin were added, respectively, with 100 μL per well, and a virus control group was set and added with only a maintenance solution, with 100 μL per well. The 96-well plate was placed in a 5% CO2 incubator at 37° C. for incubation and continuous observation for 72 h and then detected by the MTT assay. A 1/10 volume of MTT solution was added to each well. After being incubated for 3-4 h in the incubator, the 96-well plate was removed, the culture solution in the well was carefully aspirated, and 150 μL of DMSO was added to each well. The plate was shaken at a low speed for 10 min on a shaker to fully dissolve the crystal, and the absorbance was detected and recorded at a wavelength of 490 nm. The drug-to-virus inhibition rates were calculated and the experiment was repeated 3 times. […]

Wa strain rotavirus [4] = assay: Direct inhibitory effect on RV (drug pre-mixed with virus, MA104 cells, MTT assay); format: cell-based
Description: Different concentrations of salvianolic acid B solution with 50TCID50 virus solution (virus with 20 μg/mL trypsin at 37° C. for 30 min), DMEM with 50TCID50 virus solution, ribavirin with 50TCID50 virus solution were mixed in equal volumes and incubated in a 5% CO2 incubator at 37° C. for 2 hours. The cells were rinsed twice with PBS and added to a 96-well culture plate of MA104 cells grown to monolayers, and for the normal cell control group, an equal volume of DMEM was added. After incubated at 37° C. and 5% CO2 for 2 h, the mixed solution was aspirated and the maintenance solution was added, with 100 μL per well. The 96-well plate was placed in a 5% CO2 incubator at 37° C. for continuous observation for 72 h and then detected by the MTT assay. A 1/10 volume of MTT solution was added to each well. After incubated for 3-4 h in the incubator, the 96-well plate was removed, the culture solution in the well was carefully aspirated, and 150 µL of DMSO was added to each well. The plate was shaken at a low speed for 10 min on a shaker to fully dissolve the crystal, and the absorbance was detected and recorded at a wavelength of 490 nm. The drug-to-virus inhibition rates were calculated and the experiment was repeated 3 times.
Virus inhibition rate (%)=(average A value of drug group−average A value of virus control group)/(average A value of normal cell control group−average A value of virus control group)×100%

MA104 cells = assay: Toxicity of salvianolic acid B on MA104 cells (MTT assay); format: cell-based, Rhesus monkey; conditions: 72 h; for Toxicity to MA104 cells: concentration range 0-256 μM
Description: When the MA104 cells grew to monolayers, the cells were digested, centrifuged and resuspended, and the suspension was further diluted and then 10 μL was taken and counted on a blood cell counting plate, and the required cell volume was calculated. Cell plating was then performed in a 96-well plate with 100 μL of the cell suspension per well at a cell density of 8×10^4 per mL. Cells grown to monolayers were treated with different concentrations of salvianolic acid B for 72 h, and the toxicity of salvianolic acid B on MA104 cells was detected by MTT assay. 10 μL of MTT solution was added to each well, and the mixture was incubated in the incubator for 3-4 h. Then, the 96-well plate was taken out, and the culture solution in the well was carefully aspirated from the wells. 150 μL of DMSO was added to each well, and the mixture was shaken at a low speed for 10 min on a shaker to fully dissolve the crystal, and the absorbance was detected and recorded at a wavelength of 490 nm.
The formula for the relative cell survival rate is:
Cell survival rate={(Aexperimental group−Ablank)/(Acontrol group−Ablank)×100%}

Row | Structure (SMILES) | Gene expression of VP6 compared to the RV group ([1]; ribavirin group) | Anti-RV adsorption effect (conclusion) (Wa strain rotavirus [2]) | Virus inhibition rate (anti-RV adsorption) (Wa strain rotavirus [2]; 100TCID50, 72 h) | Virus inhibition rate (anti-RV biosynthesis) (Wa strain rotavirus [3]) | Direct inhibitory effect on RV (conclusion) (Wa strain rotavirus [4]; 16-256 μM) | inhibition at 16 µM (Wa strain rotavirus [4]; Rotavirus, MA104, 16 μM (first of five values over 16-256 μM), 50TCID50, 72 h, read-out: Inhibitory rate directly inhibiting RV) [%] | inhibition at 32 µM (Wa strain rotavirus [4]; Rotavirus, MA104, 32 μM (second of five values over 16-256 μM), 50TCID50, 72 h, read-out: Inhibitory rate directly inhibiting RV) [%] | inhibition at 64 µM (Wa strain rotavirus [4]; Rotavirus, MA104, 64 μM (third of five values over 16-256 μM), 50TCID50, 72 h, read-out: Inhibitory rate directly inhibiting RV) [%] | inhibition at 128 µM (Wa strain rotavirus [4]; Rotavirus, MA104, 128 μM (fourth of five values over 16-256 μM), 50TCID50, 72 h, read-out: Inhibitory rate directly inhibiting RV) [%] | inhibition at 256 µM (Wa strain rotavirus [4]; Rotavirus, MA104, 256 μM (fifth of five values over 16-256 μM), 50TCID50, 72 h, read-out: Inhibitory rate directly inhibiting RV) [%] | Expression level of VP6 compared with the RV group ([1]; 64, 128 and 256 μM, dose-response correlation) | Cell survival rate (MA104 cells; 512 μM, MA104 cells) | Toxicity to MA104 cells (MA104 cells) | Toxicity to MA104 cells (MA104 cells; listed as Salvianolic acid B)
1 | NC(=O)c1ncn([C@@H]2O[C@H](CO)[C@@H](O)[C@H]2O)n1 [ribavirin, reference compound] | significantly reduced | – | – | – | – | – | – | – | – | – | – | – | – | –
2 | O=C(/C=C/c1ccc(O)c2c1[C@@H](C(=O)O[C@H](Cc1ccc(O)c(O)c1)C(=O)O)[C@H](c1ccc(O)c(O)c1)O2)O[C@H](Cc1ccc(O)c(O)c1)C(=O)O [salvianolic acid B, Salvianolic acid B] | – | no significant anti-RV adsorption effect | below 50% | higher than 50% | no direct inhibitory effect | 14.2 | 15.2 | 16.5 | 15.8 | 12.7 | significantly reduced | below 95% | no obvious toxicity | no drug toxicity
